Measured values: paper PMC8881610 (Nature Communications, 2022)
Numbering of substitutions follows the chain as printed.

Tests used:
GLP-1R [1] = molecular target: GLP-1R (Homo sapiens, UniProt P43220, R134A); assay: Whole-cell binding assay, competition with 125I-GLP-1(7-36)NH2; set-up: Flag; expressed in transfected cells; conditions: GLP-1R R134A, CHO-K1
Summary of the method: (§1)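 CHO-K1 cells transiently transfected with WT or mutant receptor constructs, washed in F-12 with 0.1% BSA or casein/33 mM HEPES and incubated 2 h at 37 °C. Bound radioactivity counted after Triton lysis; data normalized to WT and fitted to a three-parameter logistic equation.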

GLP-1R [2] = molecular target: GLP-1R (Homo sapiens, UniProt P43220, W91A); assay: as above; set-up: Flag; expressed in transfected cells; conditions: GLP-1R W91A, CHO-K1
Summary of the method: as §1

GLP-1R [3] = molecular target: GLP-1R (Homo sapiens, UniProt P43220, K202A); assay: as above; set-up: Flag; expressed in transfected cells; conditions: GLP-1R K202A, CHO-K1
Summary of the method: as §1

GLP-1R [4] = molecular target: GLP-1R (Homo sapiens, UniProt P43220, D198A/K202A/Y145A); assay: as above; set-up: Flag; expressed in transfected cells; conditions: GLP-1R Y145A/D198A/K202A, CHO-K1
Summary of the method: as §1

GLP-1R [5] = molecular target: GLP-1R (Homo sapiens, UniProt P43220, Q210A); assay: as above; set-up: Flag; expressed in transfected cells; conditions: GLP-1R Q210A, CHO-K1
Summary of the method: as §1

GIPR [6] = molecular target: T1, GIPR (Homo sapiens, UniProt P48546, R192A); assay: Whole-cell binding assay, competition with 125I-GIP1-42; set-up: acylated tirzepatide to the full-length or modified; Flag; expressed in transfected cells; conditions: GIPR R192A, CHO-K1
T1 sequence (P48546 22-466 R192A): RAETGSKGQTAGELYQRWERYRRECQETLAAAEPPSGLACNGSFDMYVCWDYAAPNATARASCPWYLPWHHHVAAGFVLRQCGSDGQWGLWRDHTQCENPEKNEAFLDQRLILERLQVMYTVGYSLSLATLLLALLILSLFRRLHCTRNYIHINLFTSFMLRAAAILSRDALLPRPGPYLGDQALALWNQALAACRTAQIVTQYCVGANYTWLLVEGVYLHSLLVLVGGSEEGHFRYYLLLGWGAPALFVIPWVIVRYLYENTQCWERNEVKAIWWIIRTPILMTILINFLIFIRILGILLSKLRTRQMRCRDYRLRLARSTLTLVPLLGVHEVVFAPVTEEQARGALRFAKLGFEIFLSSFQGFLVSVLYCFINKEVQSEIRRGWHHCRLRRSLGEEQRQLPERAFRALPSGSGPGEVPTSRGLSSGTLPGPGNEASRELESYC
Summary of the method: (§2)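 Transiently transfected CHO-K1 cells expressing WT or mutant GIPR were washed in F-12 with 0.1% BSA or 0.1% casein and 33 mM HEPES, then incubated 2 h at 37 °C. After ice-cold PBS washes, cells were lysed and bound radioactivity counted (CPM).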

GIPR [7] = molecular target: T2, GIPR (Homo sapiens, UniProt P48546, Q30A); assay: as above; set-up: acylated tirzepatide to the full-length or modified; Flag; expressed in transfected cells; conditions: GIPR Q30A, CHO-K1
T2 sequence (P48546 22-466 Q30A): T1 sequence (P48546 22-466 R192A) with Q9A, A171R
Summary of the method: as §2

[8] = read-out: binding pIC50 (converted)

Sequence of GLP-1R (Homo sapiens, UniProt P43220, R134A) (P43220 24-463 R134A): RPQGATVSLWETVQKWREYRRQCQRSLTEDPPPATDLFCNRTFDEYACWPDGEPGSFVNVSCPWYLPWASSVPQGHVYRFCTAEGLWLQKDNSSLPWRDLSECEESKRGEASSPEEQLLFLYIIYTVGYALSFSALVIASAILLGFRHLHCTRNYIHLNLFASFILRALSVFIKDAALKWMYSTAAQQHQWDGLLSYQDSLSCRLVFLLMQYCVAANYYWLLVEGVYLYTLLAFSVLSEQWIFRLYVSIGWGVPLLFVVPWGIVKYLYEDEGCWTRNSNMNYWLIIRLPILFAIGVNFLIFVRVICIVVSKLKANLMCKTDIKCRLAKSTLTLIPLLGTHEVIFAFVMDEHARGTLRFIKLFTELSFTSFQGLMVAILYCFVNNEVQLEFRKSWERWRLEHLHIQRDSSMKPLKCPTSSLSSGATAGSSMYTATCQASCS
Sequence of GLP-1R (Homo sapiens, UniProt P43220, W91A) (P43220 24-463 W91A): as the sequence (P43220 24-463 R134A) above, with W68A, A111R counted along it
Sequence of GLP-1R (Homo sapiens, UniProt P43220, D198A/K202A/Y145A) (P43220 24-463 Y145A/D198A/K202A): as the sequence (P43220 24-463 R134A) above, with A111R, Y122A, D175A, K179A counted along it
Sequence of GLP-1R (Homo sapiens, UniProt P43220, K202A) (P43220 24-463 K202A): as the sequence (P43220 24-463 R134A) above, with A111R, K179A counted along it
Sequence of GLP-1R (Homo sapiens, UniProt P43220, Q210A) (P43220 24-463 Q210A): as the sequence (P43220 24-463 R134A) above, with A111R, Q187A counted along it

## CCCCCCCCCCCCCCCC(=O)N[C@@H](CCC(=O)NCCCC[C@H](NC(=O)[C@H](CC(=O)O)NC(=O)[C@H](CO)NC(=O)[C@@H](NC(=O)[C@H](Cc1ccccc1)NC(=O)[C@@H](NC(=O)CNC(=O)[C@H](CCC(N)=O)NC(=O)C(C)(C)NC(=O)[C@@H](N)Cc1c[nH]cn1)[C@@H](C)O)[C@@H](C)O)C(=O)N[C@@H](CO)C(=O)N[C@@H](CCCCN)C(=O)N[C@@H](Cc1ccc(O)cc1)C(=O)N[C@@H](CC(C)C)C(=O)N[C@@H](CC(=O)O)C(=O)N[C@@H](CCC(=O)O)C(=O)N[C@@H](CCCNC(=N)N)C(=O)N[C@@H](C)C(=O)N[C@@H](C)C(=O)N[C@@H](CCC(N)=O)C(=O)N[C@@H](CC(=O)O)C(=O)N[C@@H](Cc1ccccc1)C(=O)N[C@H](C(=O)N[C@@H](CCC(N)=O)C(=O)N[C@@H](Cc1c[nH]c2ccccc12)C(=O)N[C@@H](CC(C)C)C(=O)N[C@@H](CC(C)C)C(=O)N[C@@H](CC(=O)O)C(=O)NCC(=O)NCC(=O)N1CCC[C@H]1C(=O)N[C@@H](CO)C(=O)N[C@@H](CO)C(=O)NCC(=O)N[C@@H](C)C(=O)N1CCC[C@H]1C(=O)N1CCC[C@H]1C(=O)N1CCC[C@H]1C(=O)N[C@@H](CO)C(N)=O)C(C)C)C(=O)O [Peptide 20]
GLP-1R [1]
  binding Span: 73.44 ± 3.42 % WT
GLP-1R [1]; [8]
  IC50: 3.02 nM
GLP-1R [2]
  binding Span: 6.51 ± 2.59 % WT
GLP-1R [2]; [8]
  IC50: 2.04 nM
GLP-1R [3]
  binding Span: 15.32 ± 1.82 % WT
GLP-1R [3]; [8]
  IC50: 3.47 nM
GLP-1R [4]
  binding Span: 10.85 ± 36.78 % WT
GLP-1R [4]; [8]
  IC50: 1780 nM
GLP-1R [5]
  binding Span: 100.10 ± 5.13 % WT
GLP-1R [5]; [8]
  IC50: 4.07 nM
GIPR [6]
  binding Span: 71.60 ± 4.11 % WT
GIPR [6]; [8]
  IC50: 24 nM
GIPR [7]
  binding Span: 92.75 ± 4.50 % WT
GIPR [7]; [8]
  IC50: 17 nM
